Assay results from US20210094933A1, “RAPAFUCIN DERIVATIVE COMPOUNDS AND METHODS OF USE THEREOF” (The Johns Hopkins University, priority 2019, published 2021).
pIC50: −log10 of the molar value.

Assays:
Format in all cases: cell-based
A549 = assay: Cell proliferation assay (Prolif.), IC50 relative to DMSO control; settings: A549 cells; for Prolif, A549: IC50 class relative to DMSO control
Description: (§1) Cell Proliferation Assay (Prolif.) Guo et al. (2018) Nat. Chem. 11:254-63. Specific cell lines are indicated in each assay and cultured in complete growth media. Activity is scored according to the IC50 values relative to DMSO control. “Low” indicates an IC50 greater than 600 nM, “Medium” indicates an IC50 between 300 nM and 600 nM “High” indicates an IC50 less than 300 nM. “Rel.Uptake” refers to uptake activity characterization relative to a single concentration assay. “Low” indicates a response greater than 0.6 times the activity relative to DMSO, “Medium” indicates a response between 0.6 and 0.3 times the activity relative to DMSO, “High” indicates a response less than 0.3 times the activity relative to DMSO.

[1] = Cell proliferation assay, single concentration, response relative to DMSO; cell line indicated in each table; settings: A549 cells
Description: as §1

[2] = Nucleoside uptake assay, single concentration (Rel.Uptake), response relative to DMSO; cell line indicated in each table; settings: 293 T cells, nucleoside uptake at single concentration
Description: (§2) Nucleoside Uptake Assay (uptake). Nuceloside uptake assays were performed with using 3H-Thymidine as described in Guo et al. (2018) Nat. Chem, 11:254-63. Specific cell lines are indicated in each assay and cultured in complete growth media. Activity is scored according to the IC50 values relative to DMSO control. “Low” indicates an IC50 greater than 600 nM, “Medium” indicates an IC50 between 300 nM and 600 nM “High” indicates an IC50 less than 300 nM. “Rel.Uptake” refers to uptake activity characterization relative to a single concentration assay. “Low” indicates a response greater than 0.6 times the activity relative to DMSO, “Medium” indicates a response between 0.6 and 0.3 times the activity relative to DMSO, “High” indicates a response less than 0.3 times the activity relative to DMSO.

293T = assay: Nucleoside uptake assay (3H-Thymidine), IC50 relative to DMSO control; settings: 293T cells
Description: as §2

Row | Compound | Prolif, A549 (A549) | Rel. Prolif., A549 [1] | Rel. Uptake, 293 T [2] | further results
1 | CCCC[C@H]1C(=O)N[C@@H](Cc2ccc3ccccc3c2)C(=O)N(C)[C@@H](COC(C)(C)C)C(=O)NCC(=O)N(C)CCC=CC(=O)OCC(C)(C)C(=O)C(=O)N2CCCC[C@H]2C(=O)O[C@H](CCc2cc(OC)c(OC)c(OC)c2)c2cccc(c2)OCC(=O)N1C [Compound 560] | medium | medium | – | –
2 | CCCC[C@H]1C(=O)C[C@@H](Cc2ccc3ccccc3c2)C(=O)N(C)[C@@H](COC(C)(C)C)C(=O)NCC(=O)N(C)CCC=CC(=O)OCC(C)(C)C(=O)C(=O)N2CCCC[C@H]2C(=O)O[C@H](CCc2ccc(OC)c(OC)c2OC)c2cccc(c2)OCC(=O)N1C [Compound 561] | medium | medium | – | –
3 | CCCC[C@H]1C(=O)N[C@@H](Cc2ccc3ccccc3c2)C(=O)N(C)[C@@H](COC(C)(C)C)C(=O)NCC(=O)N(C)CCC=CC(=O)OCC(C)(C)C(=O)C(=O)N2CCCC[C@H]2C(=O)O[C@H](CCc2cc(OC)c(OC)cc2OC)c2cccc(c2)OCC(=O)N1C [Compound 562] | medium | medium | – | –
4 | CCCC[C@H]1C(=O)N[C@@H](Cc2ccc3ccccc3c2)C(=O)N(C)[C@@H](COC(C)(C)C)C(=O)NCC(=O)N(C)CCC=CC(=O)OCC(C)(C)C(=O)C(=O)N2CCCC[C@H]2C(=O)O[C@H](CCc2cc(OC)cc(OC)c2OC)c2cccc(c2)OCC(=O)N1C [Compound 563] | low | low | – | –
5 | CCCC[C@H]1C(=O)N[C@@H](Cc2ccc3ccccc3c2)C(=O)N(C)[C@@H](COC(C)(C)C)C(=O)NCC(=O)N(C)CCC=CC(=O)OCC(C)(C)C(=O)C(=O)N2CCCC[C@H]2C(=O)O[C@H](CCc2c(OC)ccc(OC)c2OC)c2cccc(c2)OCC(=O)N1C [Compound 564] | low | low | – | –
6 | CCCC[C@H]1C(=O)N[C@@H](Cc2ccc3ccccc3c2)C(=O)N(C)[C@@H](COC(C)(C)C)C(=O)NCC(=O)N(C)CCC=CC(=O)OCC(C)(C)C(=O)C(=O)N2CCCC[C@H]2C(=O)O[C@H](CCc2ccc(OC)c(OC)c2O)c2cccc(c2)OCC(=O)N1C [Compound 565] | medium | medium | – | –
7 | CCCC[C@H]1C(=O)N[C@@H](Cc2ccc3ccccc3c2)C(=O)N(C)[C@@H](COC(C)(C)C)C(=O)NCC(=O)N(C)CCC=CC(=O)OCC(C)(C)C(=O)C(=O)N2CCCC[C@H]2C(=O)O[C@H](CCc2cc(O)c(OC)c(OC)c2)c2cccc(c2)OCC(=O)N1C [Compound 566] | medium | medium | – | –
8 | CCCC[C@H]1C(=O)N[C@@H](Cc2ccc3ccccc3c2)C(=O)N(C)[C@@H](COC(C)(C)C)C(=O)NCC(=O)N(C)CCC=CC(=O)OCC(C)(C)C(=O)C(=O)N2CCCC[C@H]2C(=O)O[C@H](CCc2cc(OC)c(OC)cc2O)c2cccc(c2)OCC(=O)N1C [Compound 567] | medium | medium | – | –
9 | COc1ccc(CC[C@H]2NC(=O)[C@@H]3CCCCN3C(=O)C(=O)C(C)(C)CNC(=O)C=CCCN(C)C(=O)[C@H](CC(C)C)N(C)C(=O)[C@H]3CCCN3C(=O)[C@H](Cc3ccccc3)N(C)C(=O)C(c3ccccc3)NC(=O)CCC(=O)Nc3cccc2c3)cc1OC (stereo partly shown) [Compound 1557] | – | – | high | Uptake, 293T (293T; 3H-Thymidine uptake, IC50 class relative to DMSO control): high
10 | COc1ccc(CC[C@H]2OC(=O)[C@@H]3CCCCN3C(=O)C(=O)C(C)(C)COC(=O)C=CCCN(C)C(=O)[C@H](CC(C)C)N(C)C(=O)[C@H]3CCCN3C(=O)[C@H](Cc3ccc(C(=O)NCCO)cc3)NC(=O)[C@H](c3ccccc3)NC(=O)CCC(=O)Nc3cccc2c3)cc1OC [Compound 1558] | – | – | high | Uptake, 293T (293T; Table 14): high
11 | COc1ccc(CC[C@H]2OC(=O)[C@@H]3CCCCN3C(=O)C(=O)C(C)(C)COC(=O)C=CCCN(C)C(=O)[C@H](CC(C)C)N(C)C(=O)[C@H]3CCCN3C(=O)[C@H](Cc3ccc(C(=O)Nc4ccccc4)cc3)NC(=O)[C@H](c3ccccc3)NC(=O)CCC(=O)Nc3cccc2c3)cc1OC [Compound 1559] | – | – | medium | Uptake, 293T (293T; Table 14): me- dium
12 | COc1ccc(CC[C@H]2OC(=O)[C@@H]3CCCCN3C(=O)C(=O)C(C)(C)COC(=O)C=CCCN(C)C(=O)[C@H](CC(C)C)N(C)C(=O)[C@H]3CCCN3C(=O)[C@H](Cc3ccc(C(=O)Nc4cccnc4)cc3)NC(=O)[C@H](c3ccccc3)NC(=O)CCC(=O)Nc3cccc2c3)cc1OC [Compound 1562] | – | – | low | Uptake, 293T (293T; Table 14): low
13 | CCCC[C@H]1C(=O)N[C@@H](Cc2ccc3ccccc3c2)C(=O)N(C)[C@@H](COC(C)(C)C)C(=O)NCC(=O)N(C)CCC=CC(=O)OCC(C)(C)C(=O)C(=O)N2CCCC[C@H]2C(=O)O[C@H](CCc2ccc(OC)c(OC)c2)c2cccc(c2F)OCC(=O)N1C [Compound 1563] | high | – | high | –
14 | CCCC[C@H]1C(=O)N[C@@H](Cc2ccc3ccccc3c2)C(=O)N(C)[C@@H](COC(C)(C)C)C(=O)NCC(=O)N(C)CCC=CC(=O)OCC(C)(C)C(=O)C(=O)N2CCCC[C@H]2C(=O)O[C@H](CCc2ccc(OC)c(O)c2)c2cccc(c2)OCC(=O)N1C [Compound 1564] | high | – | high | –
15 | CCCC[C@H]1C(=O)N[C@@H](Cc2ccc3ccccc3c2)C(=O)N(C)[C@@H](COC(C)(C)C)C(=O)NCC(=O)N(C)CCC=CC(=O)OCC(C)(C)C(=O)C(=O)N2CCCC[C@H]2C(=O)O[C@H](CCc2ccc(OC)c(OC)c2)c2cncc(c2)OCC(=O)N1C [Compound 1565] | low | – | low | –
16 | COc1ccc(CC[C@H]2OC(=O)[C@@H]3CCCCN3C(=O)C(=O)C(C)(C)COC(=O)C=CCCN(C)C(=O)[C@H](CC(C)C)N(C)C(=O)[C@H]3CCCN3C(=O)[C@H](Cc3ccc(CNC(=O)c4ccccc4)cc3)NC(=O)[C@H](c3ccccc3)NC(=O)CCC(=O)Nc3cccc2c3)cc1OC [Compound 1585] | – | – | High (“High” indicates a response less than 0.3 times the activity relative to DMSO) | pIC50 (293T; Table 13): > 6.52
17 | COc1ccc(CC[C@H]2OC(=O)[C@@H]3CCCCN3C(=O)C(=O)C(C)(C)COC(=O)C=CCCN(C)C(=O)[C@H](CC(C)C)N(C)C(=O)[C@H]3CCCN3C(=O)[C@H](Cc3ccc(CNC(=O)Cc4ccccc4)cc3)NC(=O)[C@H](c3ccccc3)NC(=O)CCC(=O)Nc3cccc2c3)cc1OC [Compound 1586] | – | – | Med | Uptake, 293T (293T; Table 13): Med
18 | COc1ccc(CC[C@H]2OC(=O)[C@@H]3CCCCN3C(=O)C(=O)C(C)(C)COC(=O)C=CCCN(C)C(=O)[C@H](CC(C)C)N(C)C(=O)[C@H]3CCCN3C(=O)[C@H](Cc3ccc(CNC(=O)CN(C)C)cc3)NC(=O)[C@H](c3ccccc3)NC(=O)CCC(=O)Nc3cccc2c3)cc1OC [Compound 1587] | – | – | Low (“Low” indicates a response greater than 0.6 times the activity relative to DMSO) | pIC50 (293T; Table 13): < 6.22
19 | COc1ccc(CC[C@H]2OC(=O)[C@@H]3CCCCN3C(=O)C(=O)C(C)(C)COC(=O)C=CCCN(C)C(=O)[C@H](CC(C)C)N(C)C(=O)[C@H]3CCCN3C(=O)[C@H](Cc3cccc(NC(C)=O)c3)NC(=O)[C@H](c3ccccc3)NC(=O)CCC(=O)Nc3cccc2c3)cc1OC [Compound 1588] | – | – | High (“High” indicates a response less than 0.3 times the activity relative to DMSO) | pIC50 (293T; Table 13): > 6.52
20 | COc1ccc(CC[C@H]2OC(=O)[C@@H]3CCCCN3C(=O)C(=O)C(C)(C)COC(=O)C=CCCN(C)C(=O)[C@H](CC(C)C)N(C)C(=O)[C@H]3CCCN3C(=O)[C@H](Cc3ccc(NC(=O)Cc4cccnc4)cc3)NC(=O)[C@H](c3ccccc3)NC(=O)CCC(=O)Nc3cccc2c3)cc1OC [Compound 1589] | – | – | Low (“Low” indicates a response greater than 0.6 times the activity relative to DMSO) | pIC50 (293T; Table 13): < 6.22
21 | COc1ccc(CC[C@H]2OC(=O)[C@@H]3CCCCN3C(=O)C(=O)C(C)(C)COC(=O)C=CCCN(C)C(=O)[C@H](CC(C)C)N(C)C(=O)[C@H]3CCCN3C(=O)[C@H](Cc3ccc(CC(=O)NCc4ccccc4)cc3)NC(=O)[C@H](c3ccccc3)NC(=O)CCC(=O)Nc3cccc2c3)cc1OC [Compound 1590] | – | – | High (“High” indicates a response less than 0.3 times the activity relative to DMSO) | pIC50 (293T; Table 14): < 6.22
22 | CCCCCCNC(=O)Cc1ccc(C[C@@H]2NC(=O)[C@H](c3ccccc3)NC(=O)CCC(=O)Nc3cccc(c3)[C@@H](CCc3ccc(OC)c(OC)c3)OC(=O)[C@@H]3CCCCN3C(=O)C(=O)C(C)(C)COC(=O)C=CCCN(C)C(=O)[C@H](CC(C)C)N(C)C(=O)[C@H]3CCCN3C2=O)cc1 [Compound 1591] | – | – | Med | pIC50 (293T; Table 14): < 6.22
23 | C=C1NCC(=O)N(C)CC/C=C\C(=O)OCC(C)(C)C(=O)C(=O)N2CCCC[C@H]2C(=O)O[C@H](CCc2ccc(OC)c(OC)c2)c2cccc(c2)NC(=O)CCC(=O)N(C)[C@@H](CC(C)C)C(=O)N[C@H](Cc2ccccc2)C(=O)N(C)[C@H]1[C@@H](C)CC [Compound 1592] | – | – | Low (“Low” indicates a response greater than 0.6 times the activity relative to DMSO) | pIC50 (A549; Homo sapiens): > 6.52
